Measurements published in publication PMC5618429, “Kempopeptin C, a Novel Marine-Derived Serine Protease Inhibitor Targeting Invasive Breast Cancer” (Marine Drugs, 2017).

Biological target: T1, trypsin from porcine pancreas (Sus scrofa, UniProt P00761)
T1 construct: purchased Sigma T0303; host or cells: porcine pancreas
Test: Trypsin inhibition assay
Assay type: biochemical
Conditions: mean ± SD, n = 3; 30-min preincubation; read-out: IC50 against trypsin
Protocol: The trypsin inhibition assay was carried out at room temperature by incubating 10 µL of trypsin from porcine pancreas (T0303, Sigma, St. Louis, MO, USA) (100 µM prepared in assay buffer) with 39 µL of assay buffer (50 mM Tris-HCl, 100 mM NaCl, 1 mM CaCl2; pH 7.8) in the presence of 1 µL of different concentrations of inhibitors (2 and 3; half log dilutions prepared in DMSO) or the solvent control. After a 30-min incubation time, 50 µL of the 1.5 mM substrate: Nα-benzoyl-DL-arginine-4-nitroanilide (prepared as 2 mM stock solution in DMF and further diluted to 1.5 mM in assay buffer) were added to each well. The reaction was monitored by measuring the absorbance at 405 nm every 30 s for 30 min using SpectraMax M5 plate reader (Molecular Devices, Sunnyvale, CA, USA).

T1 sequence (P00761 9-231): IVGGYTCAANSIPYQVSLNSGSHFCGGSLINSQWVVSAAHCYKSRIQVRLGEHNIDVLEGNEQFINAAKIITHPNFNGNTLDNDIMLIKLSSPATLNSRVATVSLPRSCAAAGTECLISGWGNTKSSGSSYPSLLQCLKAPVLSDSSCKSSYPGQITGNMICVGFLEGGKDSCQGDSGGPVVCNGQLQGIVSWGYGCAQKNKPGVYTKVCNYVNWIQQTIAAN

`CCCC(=O)NC(C(=O)NC1C(=O)NC(CCCCN)C(=O)NC2CCC(O)N(C2=O)C(C(C)CC)C(=O)N(C)C(Cc2ccc(OC)c(Cl)c2)C(=O)NC(C(C)C)C(=O)OC1C)C(C)C` (stereo not shown) [Kempopeptin C, kempopeptin C] was tested, and the IC50 was 0.19 ± 0.05 µM.
